One data set addresses T1, VEGFR-2 (KDR) (Homo sapiens, UniProt P35968).
T1 construct: purchased Millipore 14-630
Nature of the data set: KDR Assay - HTRF KinEASE-TK (in vitro KDR inhibition). In kind it is biochemical. The following applies: ATP 100 μM, 15 minutes at rt. The procedure:
KDR Assay—HTRF KinEASE-TK
The compounds to be tested were dissolved in DMSO at 10 mM, stored at −20° C. and protected from light. The maximum concentration of DMSO in the in vitro assay was 0.75%. Control samples received the same concentration of solvent as the samples treated with the test compounds.
For the kinase assays, the HTRF KinEase™-TK kit (CisBio (#62TKOPEJ) was used. All components in HTRF KinEase™-TK kit were handled according to suppliers description. Briefly, DMSO stock solution of compounds (100% DMSO) were prediluted to 6% DMSO in 50 mM Hepesbuffer+0.05% BSA (Sigma Aldrich (A3294)) before transferring 1 μl to a 384-well Proxyplate (Perkin Elmer (#6008289) at RT. Kinase Substrate (2 μL, CisBio) was added to Proxyplate with compound. Enzyme mix (5 μL, Millipore (14-630)) with ATP (100 μM, Sigma Aldrich (A7699)), MgCl2 (5 mM; Sigma Aldrich M1028) and SEB (50 nM, CisBio) was added to start the reaction. The plates were incubated for 15 minutes at rt. The assay was stopped by addition of Detection mix (4 μL, CisBio) and plates were sealed and spun for 1 min at 1000 rpm. The plates were incubated in darkness over night at rt. The plates were read on an Envision (Perkin Elmer) plate reader. Signal from two wave lengths (665 and 620 nm) upon excitation at 340 nm in accordance to manufactures instructions. Briefly, fluorescence was measured for 400 μs between flashes after a delay time of 400 μs. The background measured in the absence of enzyme was subtracted from all samples. The molar concentrations that inhibited 50% of the maximal enzymatic activity (IC50) were calculated using a four-parameter sigmoid curve fit model of the dose-response curve, based on the following equation: y=((a−d)/(1+(x/c)^b))+d; where a is the minimum value, d is the maximum value, c is the IC50 value and […].
(TR-FRET usually uses a lanthanide donor and a delayed reading to cut background.)

A short description of data set [1]: Metabolic stability in human liver microsomes (HLM). Type of data set: in vitro ADME. Also on record: CLint scaled: dose or concentration left out as unconfirmed. The following applies: both sexes, pH 7.4; for CL/F at 0.5 μM: human liver microsomes 0.5 mg protein/mL, NADPH 1 mM, test compound 0.5 μM, 37° C., 30 minutes, read-out: HLM (apparent clearance). The procedure:
The metabolic stability is tested in human liver microsomes (In Vitro Technologies, pooled mixed sexes, 20 mg/mL); a subcellular fraction containing major drug-metabolizing phase I enzymes, including the cytochrome P450 (CYP) family and flavin monooxygenases (FMO). The apparent clearance (mL/min/kg) is calculated as a measurement of test compound elimination from the liver.
Procedure: A human microsome incubation mixture (0.5 mg microsomal protein/mL) in phosphate buffer (pH 7.4, 100 mM KH2PO4/10 mM MgCl2) is mixed with NADPH (1 mM). The mixture is pre-heated (7 min) to 37° C., test compound (0.5 μM) is added, and the mixture is incubated for 30 minutes. Incubations are run in duplicate and performed by a Tecan RSP. Samples are withdrawn at 0, 5, 10, 20, and 30 min and mixed with methanol containing internal standard to terminate all enzyme activity and precipitate proteins. […] Samples are analysed by LC-MS/MS.
Data analysis: The logarithm of the peak area ratios of test compound to internal standard versus incubation time is plotted in a graph. The rate constant (k) of test compound depletion is calculated from the linear part of the curve (Eq. 1) and the half-time (t1/2) is calculated from the slope (Eq. 2). Rate constant(k)(min^−1)=−slope Eq. 1 Half-time(t1/2)(min)=ln 2/k Eq. 2
Clint(mL/min/mg protein)=k/Protein concentration Eq. 3
In general terms: Microsomes from liver hold many membrane-bound enzymes, among them those of drug oxidation.

The mark [2] stands for this setting: human, human liver microsomes, HLM assay reference compounds, read-out: intrinsic clearance values of HLM assay reference compounds.

T1 sequence (P35968 790-1356 limits assumed): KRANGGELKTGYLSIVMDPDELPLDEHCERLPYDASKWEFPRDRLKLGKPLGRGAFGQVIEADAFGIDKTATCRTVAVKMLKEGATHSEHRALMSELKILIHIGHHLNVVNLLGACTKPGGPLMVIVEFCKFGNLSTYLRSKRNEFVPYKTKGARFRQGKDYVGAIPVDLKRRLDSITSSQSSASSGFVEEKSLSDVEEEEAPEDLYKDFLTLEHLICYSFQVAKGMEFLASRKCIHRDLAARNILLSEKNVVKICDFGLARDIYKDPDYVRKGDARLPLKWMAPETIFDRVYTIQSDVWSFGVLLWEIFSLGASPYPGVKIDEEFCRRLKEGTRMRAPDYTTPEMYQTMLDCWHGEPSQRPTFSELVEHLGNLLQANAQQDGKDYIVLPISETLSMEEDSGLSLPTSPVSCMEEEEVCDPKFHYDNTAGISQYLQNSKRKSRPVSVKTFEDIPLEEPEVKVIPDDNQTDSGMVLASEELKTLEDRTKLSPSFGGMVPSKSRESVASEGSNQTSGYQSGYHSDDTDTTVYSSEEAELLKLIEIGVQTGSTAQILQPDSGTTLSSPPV

Turning to `COC(=O)Nc1cc(CNc2ccccc2C(=O)NCCC(C)(C)C)ccn1` [Compound 101, (4-{[2-(3,3-Dimethyl-butylcarbamoyl)-phenylamino]-methyl}-pyridin-2-yl)-carbamic acid methyl ester], the IC50 against VEGFR-2 (KDR) is 11 nM. In data set [1], the CL/F at 0.5 μM was 135 mL/min/kg.
Taken in the same sequence, the figures for `CC(=O)Nc1cc(CNc2ccccc2C(=O)NCCC2CCCC2)ccn1` [Compound 102, 2-[(2-Acetylamino-pyridin-4-ylmethyl)-amino]-N-(2-cyclopentyl-ethyl)-benzamide] were 8 nM and over 200 mL/min/kg.
For the compound `CCC(CC)CCNC(=O)c1ccccc1NCc1ccnc(NC(C)=O)c1` [Compound 103, 2-[(2-Acetylamino-pyridin-4-ylmethyl)-amino]-N-(3-ethyl-pentyl)-benzamide], the IC50 on VEGFR-2 (KDR) stood at 19 nM. Also, the CL/F at 0.5 μM in data set [1] is over 200 mL/min/kg.
As for `CCC(CC)CCNC(=O)c1ccccc1NCc1ccnc(NC(=O)c2cnco2)c1` [Compound 104, Oxazole-5-carboxylic acid (4-{[2-(3-ethyl-pentylcarbamoyl)-phenylamino]-methyl}-pyridin-2-yl)-amide], on VEGFR-2 (KDR), half-maximal inhibition (IC50) required 15 nM. In addition, the CL/F at 0.5 μM in data set [1] came out at 120 mL/min/kg.
In turn, `O=C(Nc1cc(CNc2ccccc2C(=O)NCCC2CCCC2)ccn1)c1ccco1` [Compound 105, Furan-2-carboxylic acid (4-{[2-(2-cyclopentyl-ethylcarbamoyl)-phenylamino]-methyl}-pyridin-2-yl)-amide] yielded an IC50 at VEGFR-2 (KDR) of 43 nM. Also, the CL/F at 0.5 μM in data set [1] is over 200 mL/min/kg.
On to `CC(C)CCCNC(=O)c1ccccc1NCc1ccnc(NC(=O)c2ccco2)c1` [Compound 106, Furan-2-carboxylic acid (4-{[2-(4-methyl-pentylcarbamoyl)-phenylamino]-methyl}-pyridin-2-yl)-amide], for which, at VEGFR-2 (KDR), the IC50 came out at 17 nM. The CL/F at 0.5 μM in data set [1] is over 200 mL/min/kg.
On to `CC(C)(C)CCNC(=O)c1ccccc1NCc1ccnc(NC(=O)c2ccco2)c1` [Compound 107, Furan-2-carboxylic acid (4-{[2-(3,3-dimethyl-butylcarbamoyl)-phenylamino]-methyl}-pyridin-2-yl)-amide], for which, on VEGFR-2 (KDR), half-maximal inhibition (IC50) required 39 nM. Further, the CL/F at 0.5 μM in data set [1] was over 200 mL/min/kg.
Regarding `O=C(Nc1cc(CNc2ccccc2C(=O)NCCC2=CCCCC2)ccn1)c1ccco1` [Compound 108, Furan-2-carboxylic acid (4-{[2-(2-cyclohex-1-enyl-ethylcarbamoyl)-phenylamino]-methyl}-pyridin-2-yl)-amide], the midpoint of inhibition at VEGFR-2 (KDR), the IC50, lay at 44 nM. For the same compound, the CL/F at 0.5 μM in data set [1] was over 200 mL/min/kg.
On VEGFR-2 (KDR), `CCC(CC)CCNC(=O)c1ccccc1NCc1ccnc(NC(=O)c2ccco2)c1` [Compound 109, Furan-2-carboxylic acid (4-{[2-(3-ethyl-pentylcarbamoyl)-phenylamino]-methyl}-pyridin-2-yl)-amide] gave a concentration for half-maximal inhibition (IC50) of 53 nM. Further, the CL/F at 0.5 μM in data set [1] is over 200 mL/min/kg.
On to `Cc1ncc2n1-c1ccc(Cl)cc1C(c1ccccc1F)=NC2` [Midazolam, reference compound], for which, in data set [1] (setting [2]), the CLint scaled is over 200 mL/min/kg.
Take `CC(=O)CC(c1ccccc1)c1c(O)c2ccccc2oc1=O` (centres unmarked) [Warfarin, reference compound]: the CLint scaled at 0.5 μM in data set [1] (setting [2]) was under 10 mL/min/kg.

The IC50 is the concentration needed to halve the response being measured.

Values taken from patent US8350026B2, “VEGF-2 receptor and protein tyrosine kinase inhibitors and pharmaceutical use thereof” (Leo Pharma A/S, priority 2008, dated 2013).
